The source made the active and inactive calls. The rule behind the calls is not given here.
What was measured:
[1] = molecular target: Somatostatin receptor type 3 (Mus musculus) (UniProt P30935); assay: Inhibition of mouse SSTR3 transfected in CHO cells assessed as inhibition of SRIF-induced reduction of cAMP accumulation after 45 mins relative to control; assay type: functional, cell-based; design: concentration or dose not given beside the values
[2] = molecular target: T1, Somatostatin receptor type 3 (Homo sapiens, UniProt P32745)
Description: Inhibition of human SSTR3 transfected in CHO cells assessed as inhibition of SRIF-induced reduction of cAMP accumulation after 45 mins

Mus musculus [3] = assay: Antidiabetic activity in C57BL/6 mouse assessed as reduction of glucose excursion at 10 mg/kg, po by ipGTT; assay type: functional; design: scale not given: the % may be the effect or the level left
[4] = Plasma concentration in C57BL/6 mouse at 10 mg/kg, po measured after 2.5 hrs; assay type: ADME, organism-based; design: dose 10 mg/kg, route oral
[5] = molecular target: T2, Somatostatin receptor type 3 (Mus musculus, UniProt P30935)
[6] = molecular target: T2, Somatostatin receptor type 3; assay: biochemical
Description: Displacement of [125I]SS-28 from mouse SSTR3 transfected in CHO cells after 60 to 90 mins

[7] = molecular target: Voltage-gated inwardly rectifying potassium channel KCNH2 (Homo sapiens, UniProt Q12809)
Description: Displacement of radiolabeled MK-499 from human ERG channel

[8] = molecular target: T1, Somatostatin receptor type 3; assay: biochemical
Description: Displacement of [125I]SS-28 from human SSTR3 transfected in CHO cells after 60 to 90 mins

in vivo [9] = settings: mouse, plasma, po, 10 mg/kg
[10] = Clearance in rat at 1 mg/kg, iv; settings: in vivo
in vivo [11] = settings: rat, po, 2 mg/kg
in vivo [12] = settings: rat, plasma, po, 2 mg/kg
[13] = Clearance in mouse at 4 mg/kg, iv; settings: in vivo
[14] = Volume of distribution at steady state in rat at 2 mg/kg, po and 1 mg/kg, iv; settings: in vivo
in vivo [15] = settings: mouse, po, 10 mg/kg
[16] = Half life in mouse at 4 mg/kg, iv; settings: in vivo
[17] = Half life in rat at 1 mg/kg, iv; settings: in vivo
[18] = Volume of distribution at steady state in mouse at 10 mg/kg, po and 4 mg/kg, iv; settings: in vivo
Mus musculus [19] = assay: Antidiabetic activity in C57BL/6 mouse assessed as reduction of glucose excursion at 1 mg/kg, po by OGTT; assay type: functional; design: scale not given: the % may be the effect or the level left
Mus musculus [20] = assay: Antidiabetic activity in C57BL/6N mouse assessed as reduction of blood glucose level at 10 mg/kg, po measured after 60 mins post administration; assay type: functional, organism-based; design: dose 10 mg/kg
Mus musculus [21] = assay: Antidiabetic activity in C57BL/6N mouse assessed as reduction of blood glucose excursion at 1 mg/kg by OGTT ( Rvb = 91%); assay type: functional
Mus musculus [22] = assay: Antidiabetic activity in po dosed C57BL/6 mouse assessed as reduction of glucose excursion by OGTT; assay type: functional, organism-based
Mus musculus [23] = assay: Antidiabetic activity in C57BL/6N mouse assessed as reduction of blood glucose level at 0.01 to 1 mg/kg, po measured over 5 hrs; assay type: functional, organism-based
[24] = molecular target: Somatostatin receptor type 5 (Homo sapiens) (UniProt P35346); assay: Inhibition of human SSTR5 transfected in CHO cells assessed as inhibition of SRIF-induced reduction of cAMP accumulation at 5 uM after 45 mins; assay type: functional, cell-based
Mus musculus [25] = assay: Antidiabetic activity in SSTR3-knockout mouse assessed as reduction of blood glucose excursion at 1 mg/kg by OGTT; assay type: functional; design: scale not given: the % may be the effect or the level left
[26] = molecular target: Somatostatin receptor type 4 (Homo sapiens) (UniProt P31391); settings: CHO, 20 uM
in vivo [27] = settings: dog, po, 2 mg/kg
[28] = Clearance in dog at 1 mg/kg, iv; settings: in vivo
in vivo [29] = settings: rhesus monkey, plasma, po, 2 mg/kg
[30] = Half life in dog at 1 mg/kg, iv; settings: in vivo
[31] = Volume of distribution at steady state in dog at 1 mg/kg, iv and 2 mg/kg, po; settings: in vivo
in vivo [32] = settings: rhesus monkey, po, 2 mg/kg
[33] = Volume of distribution at steady state in rhesus monkey at 1 mg/kg, iv and 2 mg/kg, po; settings: in vivo
[34] = Clearance in rhesus monkey at 1 mg/kg, iv; settings: in vivo
[35] = Half life in rhesus monkey at 1 mg/kg, iv; settings: in vivo
in vivo [36] = settings: dog, plasma, po, 2 mg/kg

T1 sequence (P32745 whole entry): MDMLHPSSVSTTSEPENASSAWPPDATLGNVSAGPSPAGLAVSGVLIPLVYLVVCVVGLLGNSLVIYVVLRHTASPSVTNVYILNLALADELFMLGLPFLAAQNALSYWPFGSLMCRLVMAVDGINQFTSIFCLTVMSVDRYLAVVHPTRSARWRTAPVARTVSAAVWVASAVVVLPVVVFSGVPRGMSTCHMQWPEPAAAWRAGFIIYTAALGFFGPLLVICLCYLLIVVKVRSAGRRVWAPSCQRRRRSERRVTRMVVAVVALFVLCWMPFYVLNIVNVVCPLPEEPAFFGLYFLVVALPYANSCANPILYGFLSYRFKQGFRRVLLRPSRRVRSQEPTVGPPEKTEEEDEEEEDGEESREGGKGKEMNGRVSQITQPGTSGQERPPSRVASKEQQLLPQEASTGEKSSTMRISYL
T2 sequence (P30935 whole entry): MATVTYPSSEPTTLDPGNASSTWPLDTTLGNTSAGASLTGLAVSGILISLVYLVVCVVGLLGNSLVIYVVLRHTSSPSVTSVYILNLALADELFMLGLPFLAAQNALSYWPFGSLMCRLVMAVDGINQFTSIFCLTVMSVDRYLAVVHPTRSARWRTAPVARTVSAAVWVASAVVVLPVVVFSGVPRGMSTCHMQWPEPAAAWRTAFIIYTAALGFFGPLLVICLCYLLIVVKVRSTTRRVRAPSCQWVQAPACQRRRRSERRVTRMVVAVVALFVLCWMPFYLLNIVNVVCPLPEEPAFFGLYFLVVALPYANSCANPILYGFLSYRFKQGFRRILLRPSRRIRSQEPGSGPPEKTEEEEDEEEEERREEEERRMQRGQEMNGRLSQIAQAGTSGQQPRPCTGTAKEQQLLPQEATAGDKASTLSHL
Sequence of Somatostatin receptor type 3 (Mus musculus) (P30935 whole entry): as above
Sequence of Voltage-gated inwardly rectifying potassium channel KCNH2 (Q12809 whole entry): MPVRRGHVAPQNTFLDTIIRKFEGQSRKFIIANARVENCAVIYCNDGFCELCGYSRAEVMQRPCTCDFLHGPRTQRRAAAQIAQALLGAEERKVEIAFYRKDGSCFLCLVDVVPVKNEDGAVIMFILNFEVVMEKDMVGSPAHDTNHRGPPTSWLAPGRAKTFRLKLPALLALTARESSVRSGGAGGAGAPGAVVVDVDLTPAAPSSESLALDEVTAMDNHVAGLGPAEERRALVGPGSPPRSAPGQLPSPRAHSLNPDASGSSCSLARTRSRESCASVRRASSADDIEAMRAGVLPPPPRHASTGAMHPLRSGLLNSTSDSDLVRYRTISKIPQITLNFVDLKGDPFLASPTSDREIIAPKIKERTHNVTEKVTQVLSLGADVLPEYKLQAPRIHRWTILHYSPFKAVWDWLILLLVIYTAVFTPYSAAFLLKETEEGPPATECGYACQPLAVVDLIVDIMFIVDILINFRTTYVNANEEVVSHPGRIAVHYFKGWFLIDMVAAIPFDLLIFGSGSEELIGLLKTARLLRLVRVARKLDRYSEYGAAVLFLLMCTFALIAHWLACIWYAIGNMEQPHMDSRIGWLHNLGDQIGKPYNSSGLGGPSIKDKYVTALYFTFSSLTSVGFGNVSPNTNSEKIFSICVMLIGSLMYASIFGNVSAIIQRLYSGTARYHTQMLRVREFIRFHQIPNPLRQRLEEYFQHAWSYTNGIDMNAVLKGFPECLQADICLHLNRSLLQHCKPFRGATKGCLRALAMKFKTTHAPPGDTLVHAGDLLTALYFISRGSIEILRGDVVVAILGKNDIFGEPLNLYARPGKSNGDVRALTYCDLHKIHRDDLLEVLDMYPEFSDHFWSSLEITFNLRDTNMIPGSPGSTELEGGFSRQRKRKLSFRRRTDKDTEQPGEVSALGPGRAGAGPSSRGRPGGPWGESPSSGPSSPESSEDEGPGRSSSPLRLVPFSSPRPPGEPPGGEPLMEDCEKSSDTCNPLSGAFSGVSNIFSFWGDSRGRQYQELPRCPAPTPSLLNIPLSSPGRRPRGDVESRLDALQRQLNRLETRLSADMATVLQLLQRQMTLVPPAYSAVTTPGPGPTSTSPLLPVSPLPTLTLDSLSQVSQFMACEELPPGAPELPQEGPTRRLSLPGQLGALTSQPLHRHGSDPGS
Sequence of Somatostatin receptor type 4 (Homo sapiens) (P31391 whole entry): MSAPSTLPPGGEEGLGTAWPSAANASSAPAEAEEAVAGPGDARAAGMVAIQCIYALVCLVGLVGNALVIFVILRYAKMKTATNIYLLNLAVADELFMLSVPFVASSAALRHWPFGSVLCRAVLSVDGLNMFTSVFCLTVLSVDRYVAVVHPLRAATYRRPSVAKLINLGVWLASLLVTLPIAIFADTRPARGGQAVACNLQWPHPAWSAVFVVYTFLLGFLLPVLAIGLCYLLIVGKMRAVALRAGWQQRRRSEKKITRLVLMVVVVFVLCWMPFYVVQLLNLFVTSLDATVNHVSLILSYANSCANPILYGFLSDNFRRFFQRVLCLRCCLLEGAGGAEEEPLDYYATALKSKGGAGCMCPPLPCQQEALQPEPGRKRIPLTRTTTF
Sequence of Somatostatin receptor type 5 (Homo sapiens) (P35346 whole entry): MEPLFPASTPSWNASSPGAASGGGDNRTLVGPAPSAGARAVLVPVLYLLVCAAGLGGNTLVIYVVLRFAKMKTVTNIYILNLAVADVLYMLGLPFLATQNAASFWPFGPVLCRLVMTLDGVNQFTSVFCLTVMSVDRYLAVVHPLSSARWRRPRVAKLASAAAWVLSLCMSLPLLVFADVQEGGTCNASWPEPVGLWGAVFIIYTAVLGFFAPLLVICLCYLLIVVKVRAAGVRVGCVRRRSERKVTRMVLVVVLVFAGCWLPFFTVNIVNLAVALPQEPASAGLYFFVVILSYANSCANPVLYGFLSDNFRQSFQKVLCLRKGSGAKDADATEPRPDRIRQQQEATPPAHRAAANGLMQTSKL

Structure (SMILES)	inhibition [1]	IC50 [2]	Activity (Mus musculus [3])	concentration at 2.5 h [4]	IC50 [5]	IC50 [6]	Ki [7]	IC50 [8]	Activity (Mus musculus [19])	other results
Cn1cc([C@H]2N[C@@H](c3nc(-c4ccc(F)cc4)c[nH]3)Cc3c2[nH]c2ccccc32)cn1	67%	9.3 nM	91%	1200 nM	4.4 nM	4 nM	300 nM	6.9 nM	–	–
Cn1cc([C@@H]2N[C@@H](c3nc(-c4ccc(F)cc4)c[nH]3)Cc3c2[nH]c2ccccc32)cn1	66%	33 nM	84%	1600 nM	26 nM	4.8 nM	2190 nM	7.2 nM	–	AUC(0-t) (in vivo [9]): 4.11 µM·h; clearance [10]: 25.3 mL/min/kg; bioavailability (in vivo [11]): 47%; AUC(0-t) (in vivo [12]): 1.38 µM·h; clearance [13]: 99.6 mL/min/kg; Vd [14]: 4.59 L/kg; bioavailability (in vivo [15]): 100%; half-life [16]: 134 min; half-life [17]: 136 min; Vd [18]: 10.8 L/kg
Cc1nc([C@]2(c3cnn(C)c3)N[C@H](c3nc(-c4ccc(F)cc4)c[nH]3)Cc3c2[nH]c2ccccc32)no1	68%	–	–	–	–	–	–	–	80%	–
Cc1nc([C@H]2N[C@@H](c3nc(-c4ccc(F)cc4)c[nH]3)Cc3c2[nH]c2ccccc32)no1	103%	19 nM	–	–	18 nM	–	385 nM	19 nM	–	–
Cc1cnc(C(=O)NCCc2ccc(S(=O)(=O)NC(=O)NC3CCCCC3)cc2)cn1	–	–	–	–	–	–	–	–	–	Activity (Mus musculus [20]): Active
Cc1nc([C@]2(c3cnn(C)c3)N[C@@H](c3nc(-c4ccc(F)cc4)c[nH]3)Cc3c2[nH]c2ccccc32)no1	87%	–	–	–	–	–	–	–	109%	inhibition in vivo at 1 mg/kg (Mus musculus [21]): 112%; Activity (Mus musculus [22]): Dose-dependent effect; Activity (Mus musculus [23]): inactive; inhibition [24]: 34%; Activity (Mus musculus [25]): 28%; inhibition [26]: 42%
Cc1nc([C@@H]2N[C@@H](c3nc(-c4ccc(F)cc4)c[nH]3)Cc3c2[nH]c2ccccc32)no1	92%	58 nM	87%	200 nM	29 nM	8.1 nM	2210 nM	9.2 nM	–	bioavailability (in vivo [27]): 67%; clearance [28]: 1.78 mL/min/kg; AUC(0-t) (in vivo [29]): 12.4 µM·h; AUC(0-t) (in vivo [9]): 7.73 µM·h; clearance [10]: 9.67 mL/min/kg; bioavailability (in vivo [11]): 58%; AUC(0-t) (in vivo [12]): 4.36 µM·h; half-life [30]: 401 min; Vd [31]: 0.87 L/kg; clearance [13]: 39.9 mL/min/kg; bioavailability (in vivo [32]): 51%; Vd [14]: 5.83 L/kg; Vd [33]: 1.75 L/kg; bioavailability (in vivo [15]): 76%; clearance [34]: 2.79 mL/min/kg; half-life [35]: 485 min; half-life [16]: 155 min; half-life [17]: 488 min; AUC(0-t) (in vivo [36]): 27.6 µM·h; Vd [18]: 7.21 L/kg
Fc1ccc(-c2c[nH]c([C@H]3Cc4c([nH]c5ccccc45)[C@@H](C4CCOCC4)N3)n2)cc1	108%	5.7 nM	79%	4600 nM	26 nM	1.7 nM	–	2.8 nM	–	–
Cc1nc(C2(c3noc(C)n3)N[C@@H](c3nc(-c4ccc(F)cc4)c[nH]3)Cc3c2[nH]c2ccccc32)no1	133%	1.2 nM	–	–	1.3 nM	0.59 nM	–	0.97 nM	71%	–
Cn1cc(C2(c3cnn(C)c3)N[C@@H](c3nc(-c4ccc(F)cc4)c[nH]3)Cc3c2[nH]c2ccccc32)cn1	113%	0.7 nM	–	–	0.48 nM	0.46 nM	–	0.74 nM	68%	–
Cc1nc([C@@]2(c3cnn(C)c3)N[C@H](c3nc(-c4ccc(F)cc4)c[nH]3)Cc3c2[nH]c2ccccc32)no1	92%	–	–	–	–	–	–	–	81%	–
Fc1ccc(-c2c[nH]c([C@H]3Cc4c([nH]c5ccccc45)C(c4ccccc4)(c4ccccc4)N3)n2)cc1	101%	7.3 nM	–	–	2.4 nM	–	44 nM	0.76 nM	–	–
Cc1nc([C@@]2(c3cnn(C)c3)N[C@@H](c3nc(-c4ccc(F)cc4)c[nH]3)Cc3c2[nH]c2ccccc32)no1	130%	–	–	–	–	–	–	–	63%	–
c1ccc(-c2c[nH]c([C@H]3Cc4c([nH]c5ccccc45)[C@@H](C4CCOCC4)N3)n2)cc1	98%	11 nM	75%	3800 nM	–	–	–	–	–	–

— ChEMBL document CHEMBL2203114, “The Discovery of MK-4256, a Potent SSTR3 Antagonist as a Potential Treatment of Type 2 Diabetes” (ACS Med Chem Lett, 2012)
